# Key:
# Type in all cases: in vivo
# [1] = system: Ryegrass, Italian (Italian ryegrass, Lolium multiflorum); experiment: Test A postemergence, Ryegrass, Italian; settings: Postemergence, 0 to 100 scale (0 no effect, 100 complete control)
# Method in brief: (§1)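 Preemergence: seeded pots of loam plus sand received a directed soil spray. Postemergence: seedlings at one to two leaves, 2 to 10 cm high, were oversprayed. Each compound was formulated in a non-phytotoxic solvent mix that included a surfactant.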
# [2] = system: barnyardgrass (Echinochloa crus-galli); experiment: Test A postemergence, barnyardgrass; settings: Postemergence, 0 to 100 scale (0 no effect, 100 complete control)
# Method in brief: (§2)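 Postemergence ratings come from foliar sprays onto one- to two-leaf plants of 2 to 10 cm grown in loam/sand; preemergence ratings come from a directed spray onto the soil of newly seeded pots. Formulation was a surfactant-containing non-phytotoxic solvent blend.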
# [3] = system: wheat (Triticum aestivum); experiment: Test A postemergence, wheat; settings: Postemergence, 0 to 100 scale (0 no effect, 100 complete control)
# Method in brief: as §2
# [4] = system: Ryegrass, Italian (Italian ryegrass, Lolium multiflorum); experiment: Test A preemergence, Ryegrass, Italian; settings: Preemergence; for Ryegrass, Italian plant response rating: 125 g ai/ha, visual injury on 0 to 100 scale (0 no effect, 100 complete control), approximately 10 days; for Plant response rating, Ryegrass, Italian: 0 to 100 scale (0 no effect, 100 complete control)
# Method in brief: as §1
# [5] = system: Foxtail, Giant (giant foxtail, Setaria faberi); experiment: Test A preemergence, Foxtail, Giant; settings: Preemergence; for Foxtail, Giant plant response rating: 125 g ai/ha, visual injury on 0 to 100 scale (0 no effect, 100 complete control), approximately 10 days; for Plant response rating, Foxtail, Giant: 0 to 100 scale (0 no effect, 100 complete control)
# Method in brief: as §1
# corn (Zea mays) = experiment: Test A postemergence, corn; settings: Postemergence, 0 to 100 scale (0 no effect, 100 complete control)
# Method in brief: as §1
# [6] = system: pigweed (Amaranthus retroflexus); experiment: Test A postemergence, pigweed; settings: Postemergence, 0 to 100 scale (0 no effect, 100 complete control)
# Method in brief: as §1
# [7] = system: ragweed (common ragweed, Ambrosia artemisiifolia); experiment: Test A preemergence, ragweed; settings: Preemergence; for Ragweed plant response rating: 125 g ai/ha, visual injury on 0 to 100 scale (0 no effect, 100 complete control), approximately 10 days; for Plant response rating, Ragweed: 0 to 100 scale (0 no effect, 100 complete control)
# Method in brief: as §1
# [8] = system: blackgrass (Alopecurus myosuroides); experiment: Test A postemergence, blackgrass; settings: Postemergence, 0 to 100 scale (0 no effect, 100 complete control)
# Method in brief: as §1
# kochia (Bassia scoparia) [9] = experiment: Test A postemergence, kochia; settings: Postemergence, 0 to 100 scale (0 no effect, 100 complete control)
# Method in brief: as §1
# [10] = system: Foxtail, Giant (giant foxtail, Setaria faberi); experiment: Test A postemergence, Foxtail, Giant; settings: Postemergence, 0 to 100 scale (0 no effect, 100 complete control)
# Method in brief: as §1
# [11] = system: galium (catchweed bedstraw, Galium aparine); experiment: Test A postemergence, galium; settings: Postemergence, 0 to 100 scale (0 no effect, 100 complete control)
# Method in brief: as §2
# [12] = system: ragweed (common ragweed, Ambrosia artemisiifolia); experiment: Test A postemergence, ragweed; settings: Postemergence, 0 to 100 scale (0 no effect, 100 complete control)
# Method in brief: as §1
# [13] = system: pigweed (Amaranthus retroflexus); experiment: Test A preemergence, pigweed; settings: for Pigweed plant response rating: 125 g ai/ha, visual injury on 0 to 100 scale (0 no effect, 100 complete control), approximately 10 days; for Plant response rating, Pigweed: 0 to 100 scale (0 no effect, 100 complete control)
# Method in brief: as §2
# [14] = system: barnyardgrass (Echinochloa crus-galli); experiment: Test A preemergence, barnyardgrass; settings: Preemergence; for Barnyardgrass plant response rating: 125 g ai/ha, visual injury on 0 to 100 scale (0 no effect, 100 complete control), approximately 10 days; for Plant response rating, Barnyardgrass: 0 to 100 scale (0 no effect, 100 complete control)
# Method in brief: as §1
# kochia (Bassia scoparia) [15] = experiment: Test A preemergence, kochia; settings: Preemergence; for Kochia plant response rating: 125 g ai/ha, visual injury on 0 to 100 scale (0 no effect, 100 complete control), approximately 10 days; for Plant response rating, Kochia: 0 to 100 scale (0 no effect, 100 complete control)
# Method in brief: as §1
# [16] = 125 g ai/ha, visual injury approx. 10 days
# [17] = 500 g ai/ha, visual injury vs untreated controls after approx. 10 days
# [18] = 1000 g ai/ha, visual injury, approx. 10 days
# [19] = 31 g ai/ha, visual injury, approx. 10 days
smiles,measurement,setting,value
Cc1cc(C)c(N(S(=O)(=O)C(F)(F)F)S(=O)(=O)C(F)(F)F)cc1C1=NOC2CCCC12 (centres unmarked) [Compound 99],"Plant response rating, Ryegrass, Italian",[1]; [16],0
same,"Ryegrass, Italian plant response rating",[1]; [17],60
same,"Plant response rating, Barnyardgrass",[2]; [16],70
same,Barnyardgrass plant response rating,[2]; [17],90
same,"Plant response rating, Wheat",[3]; [16],0
same,Wheat plant response rating,[3]; [17],50
same,"Ryegrass, Italian plant response rating",[4],50
same,"Plant response rating, Ryegrass, Italian",[4]; 500 g ai/ha,90
same,"Foxtail, Giant plant response rating",[5],70
same,"Plant response rating, Foxtail, Giant",[5]; 500 g ai/ha,80
same,"Plant response rating, Corn",corn (Zea mays); [16],0
same,Corn plant response rating,corn (Zea mays); [17],0
same,"Plant response rating, Pigweed",[6]; [16],70
same,Pigweed plant response rating,[6]; [17],100
same,Ragweed plant response rating,[7],60
same,"Plant response rating, Ragweed",[7]; 500 g ai/ha,90
same,"Plant response rating, Blackgrass",[8]; [16],0
same,Blackgrass plant response rating,[8]; [17],20
same,"Plant response rating, Kochia",kochia (Bassia scoparia) [9]; [16],40
same,Kochia plant response rating,kochia (Bassia scoparia) [9]; [17],90
same,"Plant response rating, Foxtail, Giant",[10]; [16],0
same,"Foxtail, Giant plant response rating",[10]; [17],10
same,"Plant response rating, Galium",[11]; [16],90
same,Galium plant response rating,[11]; [17],90
same,"Plant response rating, Ragweed",[12]; [16],40
same,Ragweed plant response rating,[12]; [17],80
same,Pigweed plant response rating,[13],100
same,"Plant response rating, Pigweed",[13]; 500 g ai/ha,100
same,Barnyardgrass plant response rating,[14],90
same,"Plant response rating, Barnyardgrass",[14]; 500 g ai/ha,100
same,Kochia plant response rating,kochia (Bassia scoparia) [15],70
same,"Plant response rating, Kochia",kochia (Bassia scoparia) [15]; 500 g ai/ha,100
Cc1ccc(C(=O)N2CCC(C)CC2)cc1NS(=O)(=O)C(F)(F)F [Compound 7],"Plant response rating, Ryegrass, Italian",[1]; [18],90
same,"Plant response rating, Barnyardgrass",[2]; [18],20
same,"Plant response rating, Wheat",[3]; [18],0
same,"Plant response rating, Ryegrass, Italian",[4]; 1000 g ai/ha,60
same,"Plant response rating, Foxtail, Giant",[5]; 1000 g ai/ha,90
same,"Plant response rating, Corn",corn (Zea mays); [18],0
same,"Plant response rating, Pigweed",[6]; [18],20
same,"Plant response rating, Ragweed",[7]; 1000 g ai/ha,80
same,"Plant response rating, Blackgrass",[8]; [18],20
same,"Plant response rating, Kochia",kochia (Bassia scoparia) [9]; [18],40
same,"Plant response rating, Foxtail, Giant",[10]; [18],0
same,"Plant response rating, Galium",[11]; [18],40
same,"Plant response rating, Ragweed",[12]; [18],20
same,"Plant response rating, Pigweed",[13]; 1000 g ai/ha,80
same,"Plant response rating, Barnyardgrass",[14]; 1000 g ai/ha,80
same,"Plant response rating, Kochia",kochia (Bassia scoparia) [15]; 1000 g ai/ha,30
Cc1cc(Cl)c(NS(=O)(=O)C(F)(F)F)cc1C(=O)N1CCOC(C)C1 (centres unmarked) [Compound 1],"Plant response rating, Ryegrass, Italian",[1]; 31 g ai/ha,0
same,"Plant response rating, Ryegrass, Italian",[1]; [16],40
same,"Plant response rating, Barnyardgrass",[2]; 31 g ai/ha,70
same,"Plant response rating, Barnyardgrass",[2]; [16],90
same,"Plant response rating, Wheat",[3]; 31 g ai/ha,30
same,"Plant response rating, Wheat",[3]; [16],50
same,"Plant response rating, Ryegrass, Italian",[4]; [19],40
same,"Ryegrass, Italian plant response rating",[4],90
same,"Plant response rating, Foxtail, Giant",[5]; [19],20
same,"Foxtail, Giant plant response rating",[5],90
same,"Plant response rating, Corn",corn (Zea mays); 31 g ai/ha,20
same,"Plant response rating, Corn",corn (Zea mays); [16],30
same,"Plant response rating, Pigweed",[6]; 31 g ai/ha,50
same,"Plant response rating, Pigweed",[6]; [16],80
same,"Plant response rating, Ragweed",[7]; [19],30
same,Ragweed plant response rating,[7],50
same,"Plant response rating, Blackgrass",[8]; 31 g ai/ha,0
same,"Plant response rating, Blackgrass",[8]; [16],50
same,"Plant response rating, Kochia",kochia (Bassia scoparia) [9]; 31 g ai/ha,20
same,"Plant response rating, Kochia",kochia (Bassia scoparia) [9]; [16],60
same,"Plant response rating, Foxtail, Giant",[10]; 31 g ai/ha,20
same,"Plant response rating, Foxtail, Giant",[10]; [16],70
same,"Plant response rating, Galium",[11]; 31 g ai/ha,90
same,"Plant response rating, Galium",[11]; [16],100
same,"Plant response rating, Ragweed",[12]; 31 g ai/ha,80
same,"Plant response rating, Ragweed",[12]; [16],90
same,"Plant response rating, Pigweed",[13]; [19],70
same,Pigweed plant response rating,[13],100
same,"Plant response rating, Barnyardgrass",[14]; [19],0
same,Barnyardgrass plant response rating,[14],80
same,"Plant response rating, Kochia",kochia (Bassia scoparia) [15]; [19],40
same,Kochia plant response rating,kochia (Bassia scoparia) [15],70

# — patent publication US20230278972A1, “SUBSTITUTED HALOALKYL SULFONANILIDE HERBICIDES” (FMC Corporation, priority 2020, published 2023)
